According to ChEMBL document CHEMBL5126609, “Design, Synthesis, and Pharmacological Evaluation of Benzimidazolo-thiazoles as Potent CXCR3 Antagonists with Therapeutic Potential in Autoimmune Diseases: Discovery of ACT-672125” (J Med Chem, 2022):
Converted amounts (≈) assume the structure as drawn.

Experiments:
[1] = target: T1, C-X-C chemokine receptor type 3 (Homo sapiens, UniProt P49682); test: Antagonist activity at human recombinant CXCR3 expressed in CHO-K1 cells measured after 10 mins in presence of CXCL10 by FLIPR analysis
T1 sequence (P49682 whole entry): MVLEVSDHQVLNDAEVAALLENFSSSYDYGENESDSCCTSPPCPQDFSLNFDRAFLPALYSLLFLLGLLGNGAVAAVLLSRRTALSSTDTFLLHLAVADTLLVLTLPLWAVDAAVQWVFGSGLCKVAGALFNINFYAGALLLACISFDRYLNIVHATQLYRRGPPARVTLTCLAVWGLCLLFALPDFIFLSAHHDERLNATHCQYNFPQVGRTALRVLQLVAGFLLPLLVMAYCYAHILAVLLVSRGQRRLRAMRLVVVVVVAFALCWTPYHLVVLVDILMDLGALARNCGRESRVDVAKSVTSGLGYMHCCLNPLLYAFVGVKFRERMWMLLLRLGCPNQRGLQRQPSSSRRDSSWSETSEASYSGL

[2] = target: T1, C-X-C chemokine receptor type 3; test: Antagonist activity at human recombinant CXCR3 in human venous blood assessed as receptor internalization measured for 30 mins in presence of CXCL10 by flow cytometric analysis
hERG (KCNH2) = hERG (KCNH2) (Homo sapiens, UniProt Q12809); test: Inhibition of hERG expressed in CHO cells at 3 uM at -80 mV holding potential assessed as current block incubated for 3 mins by Qpatch clamp method relative to control
[3] = Solubility of the compound in FeSSIF; conditions: simulated gi fluid
[4] = Unbound fraction in rat plasma by equilibrium based LC-MS/MS analysis
[5] = Clearance in Wistar rat at 2 mg/kg, po; conditions: in vivo
[6] = Half life in Wistar rat at 0.2 mg/kg, iv; conditions: in vivo
in vivo [7] = conditions: Wistar, rat, po, 2 mg/kg
in vivo [8] = conditions: Wistar, rat, po, 2 mg/kg; remark: listed apart in the source
in vivo [9] = conditions: Wistar, rat, po, 2 mg/kg; remark: listed apart in the source
in vitro [10] = conditions: human, microsomes
in vitro [11] = conditions: rat, microsomes
[12] = Lipophilicity, log D of the compound at pH 7.4; conditions: buffer
[13] = Unbound fraction in mouse plasma by equilibrium based LC-MS/MS analysis
[14] = Apparent permeability across apical to basolateral side in MDCK1 cells by LC-MS/MS analysis; conditions: dog, MDCK
in vivo [15] = conditions: Balb/c, mouse, po, 10 mg/kg
in vivo [16] = conditions: Balb/c, mouse, po, 10 mg/kg; remark: listed apart in the source
in vivo [17] = conditions: Balb/c, mouse, po, 10 mg/kg; remark: listed apart in the source
in vitro [18] = conditions: mouse, microsomes
[19] = Solubility of the compound in FaSSIF; conditions: simulated gi fluid
[20] = Unbound fraction in human plasma by equilibrium based LC-MS/MS analysis
[21] = Half life in Wistar rat at 0.5 mg/kg, iv; conditions: in vivo
[22] = Clearance in Balb/c mouse at 10 mg/kg, po; conditions: in vivo
[23] = Half life in Balb/c mouse at 1 mg/kg, iv; conditions: in vivo
[24] = target: Voltage-gated inwardly rectifying potassium channel KCNH2 (Homo sapiens, UniProt Q12809); test: Inhibition of hERG by Qpatch-clamp method
Voltage-gated inwardly rectifying potassium channel KCNH2, sequence (Q12809 whole entry): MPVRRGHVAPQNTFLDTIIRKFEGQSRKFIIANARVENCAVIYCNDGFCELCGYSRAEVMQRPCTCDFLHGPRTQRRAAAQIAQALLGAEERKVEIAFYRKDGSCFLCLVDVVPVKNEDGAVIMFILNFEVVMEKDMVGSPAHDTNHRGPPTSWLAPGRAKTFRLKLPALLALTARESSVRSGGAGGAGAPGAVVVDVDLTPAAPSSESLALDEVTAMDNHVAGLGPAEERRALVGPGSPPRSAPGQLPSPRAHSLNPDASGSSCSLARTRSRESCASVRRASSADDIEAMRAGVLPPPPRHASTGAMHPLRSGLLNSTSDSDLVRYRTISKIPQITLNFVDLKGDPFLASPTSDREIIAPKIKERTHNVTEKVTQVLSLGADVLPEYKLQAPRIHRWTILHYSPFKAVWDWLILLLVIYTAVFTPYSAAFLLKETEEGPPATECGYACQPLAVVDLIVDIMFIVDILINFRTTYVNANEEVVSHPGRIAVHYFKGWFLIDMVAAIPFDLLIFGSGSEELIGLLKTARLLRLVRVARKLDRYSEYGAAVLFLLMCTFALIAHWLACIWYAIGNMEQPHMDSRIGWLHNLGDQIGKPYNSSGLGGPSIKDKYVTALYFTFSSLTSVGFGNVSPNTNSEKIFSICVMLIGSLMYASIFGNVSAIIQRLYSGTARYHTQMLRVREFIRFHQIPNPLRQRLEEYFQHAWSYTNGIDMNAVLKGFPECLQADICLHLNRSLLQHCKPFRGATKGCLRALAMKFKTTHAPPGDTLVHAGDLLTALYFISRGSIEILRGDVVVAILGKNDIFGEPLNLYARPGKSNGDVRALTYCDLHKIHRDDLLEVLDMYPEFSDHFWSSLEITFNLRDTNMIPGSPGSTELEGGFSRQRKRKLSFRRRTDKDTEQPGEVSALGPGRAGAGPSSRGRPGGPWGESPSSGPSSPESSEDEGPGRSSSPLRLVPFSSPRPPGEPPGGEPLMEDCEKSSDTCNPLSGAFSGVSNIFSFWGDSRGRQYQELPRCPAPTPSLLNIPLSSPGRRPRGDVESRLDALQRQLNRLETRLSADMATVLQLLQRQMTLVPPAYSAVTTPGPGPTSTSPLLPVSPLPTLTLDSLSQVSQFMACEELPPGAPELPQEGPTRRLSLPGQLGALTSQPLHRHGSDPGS

hERG (KCNH2), sequence (Q12809 whole entry): as above

SMILES	IC50 [1]	IC50 [2]	inhibition at 0.05 h, 3 µM (hERG (KCNH2))	solubility [3]	microsomal CLint at 0.25 h, 1 µM (in vitro [10])	logD [12]	fraction unbound [13]	Cmax (in vivo [15])	Tmax (in vivo [16])	AUC (in vivo [17])	microsomal CLint at 0.25 h, 1 µM (in vitro [18])	solubility [19]	fraction unbound [20]	further results
COc1cc2nc(-c3nc(C(F)(F)F)sc3N3CCN(C(=O)Cn4cnc5cccnc54)[C@H](C)C3)[nH]c2cc1OC	0.0032 µM	0.144 µM	20%	0.731 mg/mL (≈ 1250 µM)	30 µL/min/mg									fraction unbound [4]: 0.042; CL/F [5]: 2.94 L/h/kg; half-life [6]: 30 min; Tmax (in vivo [7]): 30 min; AUC (in vivo [8]): 0.196 µg·h/mL; bioavailability (in vivo [9]): 29%; microsomal CLint at 0.25 h, 1 µM (in vitro [11]): 53 µL/min/mg
Cc1nc(C)n(CC(=O)N2CCN(c3sc(C(F)(F)F)nc3-c3nc4c(F)cccc4[nH]3)C[C@H]2C)n1	0.0031 µM	0.321 µM	45%	0.75 mg/mL (≈ 1440 µM)	24 µL/min/mg	3.6	0.014	7.01 µg/mL	15 min	41.5 µg·h/mL	25 µL/min/mg			Papp A→B [14]: 85 nm/s
Cc1nc(C)n(CC(=O)N2CCN(c3sc(C(F)(F)F)nc3-c3nc4ccccc4[nH]3)C[C@H]2C)n1	0.0032 µM	0.237 µM	45%	> 0.85 mg/mL	30 µL/min/mg	3.3	0.041	5.09 µg/mL	30 min	10.8 µg·h/mL	21 µL/min/mg	0.44 mg/mL (≈ 872 µM)	0.113	fraction unbound [4]: 0.074; CL/F [5]: 0.36 L/h/kg; half-life [21]: 180 min; Papp A→B [14]: 120 nm/s; Tmax (in vivo [7]): 30 min; AUC (in vivo [8]): 2.97 µg·h/mL; bioavailability (in vivo [9]): 0.5%; microsomal CLint at 0.25 h, 1 µM (in vitro [11]): 39 µL/min/mg
Cc1nc(C)n(CC(=O)N2CCN(c3sc(C(F)(F)F)nc3-c3nc4ccc(C5CCOCC5)cc4[nH]3)C[C@H]2C)n1	0.0033 µM	0.123 µM	18%	> 1 mg/mL	18 µL/min/mg	3.7		1.98 µg/mL	18 min	0.545 µg·h/mL	46 µL/min/mg			
C[C@@H]1CN(c2sc(C(F)(F)F)nc2-c2nc3ccc(CO)cc3[nH]2)CCN1C(=O)Cn1cnc2cccnc21	0.0046 µM		12%		131 µL/min/mg									
C[C@@H]1CN(c2sc(C(F)(F)F)nc2-c2nc3ccccc3[nH]2)CCN1C(=O)Cn1cnc2cccnc21			70%	0.214 mg/mL (≈ 406 µM)	89 µL/min/mg	3.9	0.01	27.9 µg/mL			104 µL/min/mg	0.013 mg/mL (≈ 24.7 µM)	0.023	fraction unbound [4]: 0.017; CL/F [22]: 2.46 L/h/kg; half-life [23]: 13.2 min; IC50 [24]: 1.4 µM; microsomal CLint at 0.25 h, 1 µM (in vitro [11]): 104 µL/min/mg
Cc1nc(C)n(CC(=O)N2CCN(c3sc(C(F)(F)F)nc3-c3nc4ccc(N5CCOCC5)cc4[nH]3)C[C@H]2C)n1	0.0057 µM	0.368 µM	4%	0.963 mg/mL (≈ 1630 µM)	19 µL/min/mg	2		4.32 µg/mL	15 min	4.11 µg·h/mL	18 µL/min/mg			
C[C@@H]1CN(c2sc(C(F)(F)F)nc2-c2nc3ccccc3[nH]2)CCN1C(=O)Cn1cnc2c1CCN(C)C2	0.0036 µM	0.135 µM	33%	> 0.92 mg/mL	21 µL/min/mg	3						> 0.92 mg/mL	0.15	
Cc1nn(CC(=O)N2CCN(c3sc(C(F)(F)F)nc3-c3nc4ccccc4[nH]3)C[C@H]2C)cc1CN(C)C	0.0027 µM	0.33 µM	38%	0.645 mg/mL (≈ 1180 µM)	37 µL/min/mg	2.4	0.053	0.258 µg/mL	120 min	0.833 µg·h/mL	29 µL/min/mg	0.649 mg/mL (≈ 1190 µM)	0.143	
Cc1nc(C)n(CC(=O)N2CCN(c3sc(C(F)(F)F)nc3-c3nc4ccc(-n5cncn5)cc4[nH]3)C[C@H]2C)n1	0.0058 µM	1.14 µM	3%											
Cc1nc(C)n(CC(=O)N2CCN(c3sc(C(F)(F)F)nc3-c3nc4ccc(OC5CNC5)cc4[nH]3)C[C@H]2C)n1	0.0038 µM	0.58 µM	0%											
C[C@@H]1CN(c2sc(C(F)(F)F)nc2-c2nc3ccc(N4CCN(C)CC4)cc3[nH]2)CCN1C(=O)Cn1cccn1	0.0016 µM	0.122 µM	0%											
C[C@@H]1CN(c2sc(C(F)(F)F)nc2-c2nc3cc(OCCO)ccc3[nH]2)CCN1C(=O)Cn1cnc2cccnc21	0.0021 µM	0.0991 µM	25%	0.549 mg/mL (≈ 936 µM)	43 µL/min/mg	2.4	0.03	1.76 µg/mL	15 min	0.519 µg·h/mL	31 µL/min/mg			
C[C@@H]1CN(c2sc(C(F)(F)F)nc2-c2nc3ccccc3[nH]2)CCN1C(=O)Cn1cccn1	0.013 µM	0.191 µM	54%	0.734 mg/mL (≈ 1540 µM)	44 µL/min/mg	3.4	0.026	0.67 µg/mL	15 min	0.72 µg·h/mL	218 µL/min/mg	0.352 mg/mL (≈ 740 µM)	0.052	
Cc1ccc(CC(=O)N2CCN(c3sc(C(F)(F)F)nc3-c3nc4ccccc4[nH]3)C[C@H]2C)cn1	0.0061 µM	0.805 µM	73%											
Cc1nc(C)n(CC(=O)N2CCN(c3sc(C(F)(F)F)nc3-c3nc4ccc(C5CCN(C)CC5)cc4[nH]3)C[C@H]2C)n1			-5%	> 1.02 mg/mL	27 µL/min/mg	3.4		0.0305 µg/mL	180 min	0.0546 µg·h/mL				
